From patent publication US20180118721A1, “PYRIMIDINE DERIVATIVES” (Merck Patent GmbH, priority 2015, published 2018)
pIC50: −log10 of the molar value.

Legend:
[1] = biological target: T1, purified human recombinant MTH1 (human MTH1, residues 42-197) (Homo sapiens, UniProt P36639); experiment: MTH1 enzymatic assay (luminescence-based, PPiLight); type: biochemical; conditions: Table 2
T1 construct: human MTH1, residues 42-197, Uniprot-ID: P36639, expressed in E. coli; made in house; host or cells: E. coli

[2] = Microsomal stability (intrinsic clearance), human; type: in vitro ADME; conditions: human liver microsomes, 0.5 mg/ml protein, Clint
Text: (§1) A microsomal stability assay is used to measure in vitro clearance (Clint). The assay involves measuring the rate of disappearance of a compound due to its intrinsic attitude to be metabolized (“intrinsic” meaning that the disappearance is not affected by other properties like permeability, binding etc. that play a role when quantifying in vivo clearance). The microsomal stability (intrinsic clearance, Clint) and thus metabolic stability is generally given as μl/min/mg protein. It can be visualized as the volume of solution that 1 mg of microsomes is able to clear of the compound in one minute.
(§2) A Tecan Genesis workstation (RSP 150/8) was used for to perform the microsomal incubations. Analysis was carried out using a Waters ACQUITY UPLC system coupled to an ABSciex API3000 mass spectrometer. Data analysis was performed using Assay Explorer (Symyx).
(§3) Column: Acquity UPLC BEH C18, 2.1×50 mm, 1.7 μm (Waters) Mobile phases: A=0.1% formic acid in water; B=acetonitrile
(§4) Flow rate: 0.750 mL/min; Detection: ESI, MRM; Injection: 10 μL; Column temperature: 50° C.
(§5) • Potassium phosphate buffer: 0.05 M potassium phosphate buffer pH 7.4 containing 1 mM MgCl2 • NADPH (nicotinamide adenine dinucleotide phosphate): 22.5 mg NADPH-Na4 in 1.8 ml potassium phosphate buffer • Acetonitrile: 50 Vol % acetonitrile (1 volume acetonitrile, 1 volume water) • DMSO: 20 Vol % DMSO in water • Stock solution of 20 mg/ml human or mouse liver microsomes (protein)/ml in phosphate buffer • Stock solution of 10 mM compound in 100% DMSO
(§6) Dilution of test compounds was done in 2 steps starting from a 10 mM stock solution of the respective compound in 100% DMSO. First 4 μl stock solution was added to 196 μl of 20 Vol % DMSO. In a second step, 10 μl of the first dilution were added to 1590 μl potassium phosphate buffer to achieve a final concentration of 1.25 μM in the final compound dilution. Thus, the amount of organic solvent in the assay was kept to a minimum (<1%).
(§7) The human or mouse liver microsome (protein) solution to be used in the assay was prepared by mixing 750 μl stock solution (20 mg/ml) and 2250 μl potassium phosphate buffer to a final concentration of 5 mg/ml.
(§8) Incubation was carried out on a 96 deep well incubation plate. 160 μl per well of the final compound dilution were transferred onto the incubation plate. Four samples of each compound dilution were assayed. 20 μl/well liver microsome solution was added to each well and the samples were then preincubated for 5 min at 37° C. and 800 rpm agitation. Two reference compounds (verapamil and dextromethorphan) were used in parallel in every experiment and for each species (human or mouse microsomes) to ensure system performance and for comparison.
(§9) On a separate stop plate, 160 μl acetonitrile were added per well.
(§10) After preincubation, i.e. at time t1=0 minutes, 18 μl samples of incubated compound solution and were transferred and added per well (containing acetonitrile) on the stop plate to prevent a reaction (0 minutes control samples, 4 samples per compound). Equally, 18 μl samples of incubated reference compound solution were transferred and added per well (containing acetonitrile) on the stop plate at time t1=0 minutes and again after 30 minutes (t4), solubility and chemical stability of the compound were checked. […]

[3] = Microsomal stability (intrinsic clearance), mouse; type: in vitro ADME; conditions: mouse liver microsomes, 0.5 mg/ml protein, Clint
Text: as §1, §2, §3, §4, §5, §6, §7, §8, §9, §10

CNc1cc(-c2cccc(Cl)c2Cl)nc(N)n1 [TH-287, reference compound]
pIC50 [1]: > 9.00 | Microsomal stability human [2]: 32 μl/min/mg prot. | Microsomal stability mouse [3]: 444 μl/min/mg prot.
